This note sets out measurements from US10202379B2, “Substituted polycyclic carbamoyl pyridone derivative prodrug” (priority 2010, dated 2019).

Where two headings read alike, the source gives them in different places.

The test system of assay [1] is influenza virus. In words: microbe, parasite or virus in culture. In kind it is cell-based. The following applies: MDBK or MDCK cells, 3 days, WST-8.
Assay [2] has as its target Cap-dependant Endonuclease (CEN) (RNP fraction, PB1-PB2-PA complex) (Influenza A virus (strain A/Wilson-Smith/1933 H1N1) (Influenza A virus (strain A/WS/1933 H1N1)), UniProt P15659). It counts as biochemical, influenza A/WSN/33 virus.
Setting [3] is: unidentified influenza virus, 72 h, read-out: CPE EC50, parent compounds (Reference examples).
The mark [4] stands for this setting: parent compounds (Reference examples), room temperature, 60 minutes.
[5] abbreviates: parent compounds (Reference examples), read-out: CPE EC50.

For orientation: EC50 means the midpoint of the concentration-response curve. A word on the IC50: it is the midpoint of a concentration-inhibition curve. As for `C[C@@H](N1CN([C@H]2c3ccc(F)cc3CSc3c(Cl)cccc32)n2ccc(=O)c(O)c2C1=O)C(F)(F)F` [Reference example 602], the EC50 in assay [1] (setting [3]) came to 4 nM. Moreover, the IC50 in assay [2] (setting [4]) was found to be 5 nM.

As to `C[C@@H](N1CN([C@@H]2c3ccccc3SCc3cccc(Cl)c32)n2cc(CO)c(=O)c(O)c2C1=O)C(F)(F)F` [compound 666], the EC50 in assay [1] (setting [5]) stood at 3.91 nM. In assay [2], the IC50 came out at 3.36 nM.

Regarding `C[C@@H](N1CN([C@H](c2ccccc2)c2ccccc2Cl)n2ccc(=O)c(O)c2C1=O)C(F)(F)F` [Reference example 652], in assay [1] (setting [3]), the EC50 is 79 nM. Moreover, the IC50 in assay [2] (setting [4]) was found to be 330 nM.

In the case of `C[C@@H](N1CN(C(c2ccccc2Cl)c2ccccc2Cl)n2ccc(=O)c(O)c2C1=O)C(F)(F)F` [Reference example 648], in assay [1] (setting [3]), the EC50 was determined as 59 nM. The IC50 in assay [2] (setting [4]) came to 132 nM.

As for `COCCN1CC(C(c2ccccc2)c2ccccc2)n2cc(C(=O)O)c(=O)c(O)c2C1=O` (stereo not shown) [Example 2], in assay [1] (setting [3]), the EC50 was 293 nM. Moreover, the IC50 in assay [2] (setting [4]) was determined as 48 nM.

As for `O=C1c2c(O)c(=O)ccn2N(C2c3ccccc3CSc3ccccc32)CN1Cc1ncns1` (stereo not shown) [Reference example 316], in assay [1] (setting [3]), the EC50 worked out at 83 nM. Further, in assay [2] (setting [4]), the IC50 is 69 nM.

As to `C[C@@H](N1CN([C@H]2c3cc(F)ccc3CSc3c(F)cccc32)n2ccc(=O)c(O)c2C1=O)C(F)(F)F` [Reference example 656], the EC50 in assay [1] (setting [3]) is 19 nM. Moreover, the IC50 in assay [2] (setting [4]) worked out at 70 nM.

Consider `C[C@@H](N1CN([C@@H]2c3ccccc3SCc3c(Cl)cccc32)n2cc(CO)c(=O)c(O)c2C1=O)C(F)(F)F` [compound 719], for which the EC50 in assay [1] (setting [3]) is 8.36 nM. Moreover, the IC50 in assay [2] (setting [4]) came out at 2.6 nM.

As for `C[C@@H](N1CN([C@H]2c3ccccc3CCc3cccc(F)c32)n2ccc(=O)c(O)c2C1=O)C(F)(F)F` [Reference example 633], in assay [1] (setting [3]), the EC50 came out at 22 nM. The IC50 in assay [2] (setting [4]) stood at 53 nM.

Take `C[C@@H](N1CN([C@@H]2c3cccc(F)c3SCc3cccc(Br)c32)n2ccc(=O)c(O)c2C1=O)C(F)(F)F` [compound 771]: the EC50 in assay [1] (setting [3]) was 4.05 nM. Also, the IC50 in assay [2] (setting [4]) was found to be 5.89 nM.

Regarding `C[C@@H](N1CN(C(c2ccc(F)cc2)c2ccc(F)cc2)n2ccc(=O)c(O)c2C1=O)C(F)(F)F` [Reference example 649], the EC50 in assay [1] (setting [3]) was 51 nM. Also, in assay [2] (setting [4]), the IC50 was 182 nM.

On to `O=C1c2c(O)c(=O)ccn2N(C2c3ccccc3CCc3ccccc32)CN1C1COC1` [Reference example 629], for which the EC50 in assay [1] (setting [3]) was 64 nM. Besides, the IC50 in assay [2] (setting [4]) was found to be 89 nM.

Regarding `CC(O)c1cn2c(c(O)c1=O)C(=O)N([C@H](C)C(F)(F)F)CN2[C@@H]1c2ccccc2SCc2cccc(Cl)c21` (stereo partly shown) [compound 710], in assay [1] (setting [3]), the EC50 is 9.81 nM. This compound also returned an IC50 in assay [2] of 20.6 nM.

As to `Cc1cccc2c1CCc1ccccc1C2N1CN([C@H](C)C(F)(F)F)C(=O)c2c(O)c(=O)ccn21` (stereo partly shown) [Reference example 631], the EC50 in assay [1] (setting [3]) is 41 nM. Also, the IC50 in assay [2] (setting [4]) amounted to 75 nM.

Regarding `C#Cc1cccc2c1[C@H](N1CN([C@H](C)C(F)(F)F)C(=O)c3c(O)c(=O)ccn31)c1cccc(F)c1SC2` [compound 726], the EC50 in assay [1] (setting [3]) amounted to 3.93 nM. In assay [2] (setting [4]), the half-maximal inhibitory concentration (IC50) came to 3.74 nM.

For `CC(C)N1C(=O)c2c(OCc3ccccc3)c(=O)ccn2N(C2c3ccccc3CCc3ccccc32)C1c1ccc(Cl)cc1` (stereo not shown) [Reference example 527], the EC50 in assay [1] (setting [5]) amounted to 88 nM. In assay [2], the half-inhibitory concentration (IC50) came to 127 nM.

For the compound `C[C@@H](N1CN([C@H]2c3ccccc3SCc3cccc(N(C)C)c32)n2ccc(=O)c(O)c2C1=O)C(F)(F)F` [compound 753], the EC50 in assay [1] (setting [3]) came to 18.5 nM. In addition, in assay [2] (setting [4]), the IC50 is 109 nM.

Turning to `C[C@@H](N1CN([C@@H]2c3ccccc3SCc3c2ccc(F)c3F)n2ccc(=O)c(O)c2C1=O)C(F)(F)F` [compound 711], the EC50 in assay [1] (setting [3]) worked out at 4.28 nM. The IC50 in assay [2] came out at 5.57 nM.

`COc1cccc2c1[C@H](N1CN([C@H](C)C(F)(F)F)C(=O)c3c(O)c(=O)ccn31)c1ccccc1SC2` [compound 728]: the EC50 in assay [1] (setting [3]) was 4.32 nM. The IC50 in assay [2] (setting [4]) was 74.7 nM.

As to `C[C@@H](N1CN(C(c2ccccc2)c2ccc(Cl)cc2)n2ccc(=O)c(O)c2C1=O)C(F)(F)F` (stereo partly shown) [Reference example 650], in assay [1] (setting [3]), the EC50 is 103 nM. Also, the IC50 in assay [2] (setting [4]) stood at 219 nM.

As for `Cc1cccc2c1CSc1c(C)cccc1[C@H]2N1CN([C@H](C)C(F)(F)F)C(=O)c2c(O)c(=O)ccn21` [Reference example 613], the EC50 in assay [1] (setting [3]) amounted to 18 nM. The same compound gave an IC50 in assay [2] of 173 nM.

`C[C@@H](N1CN([C@H]2c3ccccc3CSc3cccc(F)c32)n2ccc(=O)c(O)c2C1=O)C(F)(F)F` [Reference example 603]: the EC50 in assay [1] (setting [3]) came to 15 nM. The IC50 in assay [2] (setting [4]) worked out at 37 nM.

In the case of `C#Cc1cccc2c1[C@H](N1CN([C@H](C)C(F)(F)F)C(=O)c3c(O)c(=O)ccn31)c1ccccc1SC2` [compound 730], the EC50 in assay [1] (setting [3]) was determined as 0.799 nM. Besides, the IC50 in assay [2] (setting [4]) turned out to be 2.52 nM.

As to `C[C@@H](N1CN([C@@H]2c3ccc(Cl)cc3SCc3c(F)cccc32)n2ccc(=O)c(O)c2C1=O)C(F)(F)F` [Reference example 663], the EC50 in assay [1] (setting [3]) is 18 nM. In assay [2] (setting [4]), the IC50 worked out at 31 nM.

`N#CCN1CN(C(c2ccccc2)c2ccccc2)n2ccc(=O)c(O)c2C1=O` [Reference example 574]: in assay [1] (setting [3]), the EC50 is 442 nM. Besides, the IC50 in assay [2] (setting [4]) came to 165 nM.

As for `C[C@@H](N1CN([C@@H]2c3ccccc3SCc3cccc(Br)c32)n2ccc(=O)c(O)c2C1=O)C(F)(F)F` [Reference example 654], in assay [1] (setting [3]), the EC50 amounted to 1 nM. Also, the IC50 in assay [2] (setting [4]) stood at 8 nM.

As for `Cc1cccc2c1CCc1c(C)cccc1C2N1CN([C@H](C)C(F)(F)F)C(=O)c2c(O)c(=O)ccn21` [Reference example 632], the EC50 in assay [1] (setting [3]) is 38 nM. In addition, the IC50 in assay [2] (setting [4]) came to 132 nM.

`Cc1cccc2c1SCc1cccc(Cl)c1[C@@H]2N1CN([C@H](C)C(F)(F)F)C(=O)c2c(O)c(=O)ccn21` [compound 768]: in assay [1] (setting [3]), the EC50 came to 3.64 nM. Besides, the IC50 in assay [2] (setting [4]) came out at 15.3 nM.

With `COC(=O)c1cn2c(c(O)c1=O)C(=O)N1CCCCN1C2C(c1ccccc1)c1ccccc1` (stereo not shown) [Reference example 506], the EC50 in assay [1] (setting [3]) was found to be 1620 nM. Besides, the IC50 in assay [2] (setting [4]) worked out at 247 nM.

Regarding `C[C@@H](N1CN([C@H]2c3ccccc3SCc3cccc(Br)c32)n2ccc(=O)c(O)c2C1=O)C(F)(F)F` [Reference example 661], the EC50 in assay [1] (setting [3]) came to 14 nM. Moreover, the IC50 in assay [2] (setting [4]) was found to be 135 nM.

As for `C[C@@H](N1CN([C@H]2c3ccccc3CSc3ccccc32)n2cc(CO)c(=O)c(O)c2C1=O)C(F)(F)F` [compound 712], in assay [1] (setting [3]), the EC50 came out at 6.45 nM. The IC50 in assay [2] (setting [4]) came out at 16.4 nM.

In the case of `C[C@@H](N1CN([C@H]2c3cc(F)c(F)cc3CSc3ccccc32)n2ccc(=O)c(O)c2C1=O)C(F)(F)F` [compound 668], the EC50 in assay [1] (setting [3]) came out at 3.84 nM. In assay [2], the IC50 is 12.6 nM.

Consider `C[C@@H](N1CN([C@H]2c3ccc(F)cc3CSc3c(Br)cccc32)n2ccc(=O)c(O)c2C1=O)C(F)(F)F` [Reference example 619], for which, in assay [1] (setting [3]), the EC50 turned out to be 6 nM. In assay [2] (setting [4]), the IC50 was found to be 5 nM.

`O=C1c2c(O)c(=O)ccn2N([C@@H]2c3ccccc3SCc3cccc(Cl)c32)[C@H]2COCCN12` [compound 682]: in assay [1] (setting [3]), the EC50 came out at 3.5 nM. In assay [2] (setting [4]), the IC50 was determined as 19.7 nM.

Consider `C[C@@H](N1CN([C@@H]2c3cccc(Cl)c3SCc3cccc(F)c32)n2ccc(=O)c(O)c2C1=O)C(F)(F)F` [Reference example 601], for which the EC50 in assay [1] (setting [3]) was 8 nM. Further, in assay [2] (setting [4]), the IC50 came out at 25 nM.
